Literature values as cited in patent publication US10087176B2, “3,5-dichloro,4-(3,4-(cyclo-)alkoxyphenyl)--2-carbonyloxy)ethyl)pyridine derivatives as PDE-4 inhibitors” (Chiesi Farmaceutici S.p.A., priority 2014, dated 2018).

Key:
[1] = test system: lung inflammation and emphysema; details: smoking model of COPD in mice
[2] = test system: neutrophils and CXCL8 in sputum; details: COPD patients, oral, given over 4 weeks
[3] = patients with severe disease, frequent exacerbations and mucus hypersecretion

SMILES: O=C(Nc1c(Cl)cncc1Cl)c1ccc(OC(F)F)c(OCC2CC2)c1 [roflumilast]
- effect on lung inflammation and emphysema [1]: inhibits lung inflammation and emphysema
- effect on CXCL8 concentrations in sputum [2]: significantly reduces
- reduction of numbers of neutrophils in sputum [2]: 36%
- improvement of FEV 1 [3]: approximately 50 ml
- reduction of exacerbation [3]: about 15%
